Activity calls are given as the source filed them. The calls are words filed in the database; no cut-off is given here. *1 amine or outer side, *2 acyl side, *3 side chain or, on linkers, in order; H or OH if unused. Where a SMILES comes first, the peptide text is derived from it. Bridges are numbered along the chain shown (N, C = ends). Roman numbers before positions name the chains, in order. [ ]: non-standard residue; d: D form. Actinocin(1to9) = Cc1c2oc3c(C)ccc(C(=O)[*:2])c3nc-2c(C(=O)[*:1])c(N)c1=O; NMeV = CN[C@H](C(=O)O)C(C)C; Sar = CNCC(=O)O
Tests used:
HEp-2 = test: Antiproliferative activity against human Hep2 cell line by MTT assay; assay type: functional, cell-based
ACHN = test: Antiproliferative activity against human ACHN cell line by MTT assay; assay type: functional, cell-based
CCRF-SB = test: Antiproliferative activity against human CCRF-SB cell line by MTT assay; assay type: functional, cell-based
MT4 = test: Antiproliferative activity against human MT4 cell line by MTT assay; assay type: functional, cell-based
KB = test: Antiproliferative activity against human KB cell line by MTT assay; assay type: functional, cell-based
5637 = test: Antiproliferative activity against human 5637 cell line by MTT assay; assay type: functional, cell-based
WIL2-NS = test: Antiproliferative activity against human Wil2-NS cells by MTT assay; assay type: functional, cell-based
CCRF-CEM = test: Antiproliferative activity against human CCRF-CEM cell line by MTT assay; assay type: functional, cell-based
C8166 = test: Antiproliferative activity against human C8166 cell line by MTT assay; assay type: functional, cell-based
HeLa = test: Antiproliferative activity against human HeLa cells by MTT assay; assay type: functional, cell-based
G-361 = test: Antiproliferative activity against human G361 cell line by MTT assay; assay type: functional, cell-based
HT-29 [1] = test: Antiproliferative activity against human HT29 cell line by MTT assay; assay type: functional, cell-based
MOLT-4 = test: Antiproliferative activity against human MOLT4 cell line by MTT assay; assay type: functional, cell-based
HT-29 [2] = test: Cell cycle arrest in HT29 cells by accumulation at G2/M phase by flow cytometry at […]; assay type: functional, Homo sapiens
HT-29 [3] = test: Cell cycle arrest in HT29 cells by accumulation at S phase by flow cytometry at […]; assay type: functional, Homo sapiens
HT-29 [4] = test: Cell cycle arrest in HT29 cells by accumulation at G0/G1 phase by flow cytometry at […]; assay type: functional, Homo sapiens
[5] = molecular target: DNA topoisomerase II (Homo sapiens) (UniProt P11388+Q02880); test: Promotion of human topoisomerase 2-mediated DNA cleavage; assay type: protein assay
[6] = molecular target: T1, DNA topoisomerase 1 (Homo sapiens) (UniProt P11387); test: Promotion of human topoisomerase 1-mediated DNA cleavage
T1 sequence (whole entry): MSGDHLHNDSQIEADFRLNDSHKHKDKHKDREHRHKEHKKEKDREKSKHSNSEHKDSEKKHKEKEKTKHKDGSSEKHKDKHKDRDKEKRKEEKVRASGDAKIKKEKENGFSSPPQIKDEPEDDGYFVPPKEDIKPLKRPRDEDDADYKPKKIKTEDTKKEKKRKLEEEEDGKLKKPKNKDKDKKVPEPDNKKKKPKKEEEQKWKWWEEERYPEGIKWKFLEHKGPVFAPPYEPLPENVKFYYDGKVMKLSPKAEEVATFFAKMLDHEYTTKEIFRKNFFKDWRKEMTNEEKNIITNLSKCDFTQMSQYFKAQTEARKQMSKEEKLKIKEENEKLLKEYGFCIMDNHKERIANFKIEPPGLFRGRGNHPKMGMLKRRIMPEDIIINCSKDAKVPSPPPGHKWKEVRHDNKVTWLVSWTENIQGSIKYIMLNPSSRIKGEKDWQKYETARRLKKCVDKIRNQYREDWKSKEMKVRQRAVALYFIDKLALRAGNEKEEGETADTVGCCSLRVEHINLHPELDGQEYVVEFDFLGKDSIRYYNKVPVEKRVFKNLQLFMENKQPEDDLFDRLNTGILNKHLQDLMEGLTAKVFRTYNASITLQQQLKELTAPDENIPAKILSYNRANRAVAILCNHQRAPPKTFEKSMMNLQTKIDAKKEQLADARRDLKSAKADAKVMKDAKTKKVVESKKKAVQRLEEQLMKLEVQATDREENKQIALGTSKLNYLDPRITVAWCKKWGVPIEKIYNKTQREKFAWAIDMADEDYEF

Row | SMILES | IC50 (HEp-2) | IC50 (ACHN) | IC50 (CCRF-SB) | IC50 (MT4) | IC50 (KB) | IC50 5637 | IC50 (WIL2-NS) | IC50 (CCRF-CEM) | IC50 (C8166) | IC50 (HeLa) | IC50 (G-361) | IC50 (HT-29 [1]) | IC50 (MOLT-4) | Activity (HT-29 [2]) | Activity (HT-29 [3]) | Activity (HT-29 [4]) | Activity [5] | Activity [6]
1 | O=c1cc2oc3cc4c(cc3nc-2c2cccnc12)CCCC4 | 1700 nM | 1400 nM | 2000 nM | 1500 nM | 1000 nM | 1000 nM | 1200 nM | 1100 nM | 1000 nM | 1100 nM | 1500 nM | 3300 nM | 1800 nM | – | – | – | – | –
2 | Cc1ccc2nc3c4cccnc4c(=O)cc-3oc2c1C | 400 nM | 5 nM | 100 nM | 300 nM | 400 nM | 1800 nM | 1800 nM | 6000 nM | 500 nM | 600 nM | 30 nM | 6900 nM | 3000 nM | – | – | – | – | –
3 | O=c1cc2oc3c(ccc4ccccc43)nc-2c2cccnc12 | 60 nM | 500 nM | 20 nM | 100 nM | 100 nM | 100 nM | 60 nM | 50 nM | 100 nM | 200 nM | 50 nM | 300 nM | 90 nM | 38.49% | 43.88% | 17.63% | inactive | inactive
4 | Cc1cc(C)c2nc3c4cccnc4c(=O)cc-3oc2c1 | 300 nM | 1 nM | 20 nM | 40 nM | 300 nM | 5 nM | 70 nM | 100 nM | 200 nM | 200 nM | 1 nM | 200 nM | 500 nM | – | – | – | – | –
5 | O=c1cc2oc3cc4ccccc4cc3nc-2c2cccnc12 | 50 nM | 20 nM | 10 nM | 50 nM | 20 nM | 20 nM | 10 nM | 4 nM | 20 nM | 50 nM | 10 nM | 30 nM | 10 nM | 55.01% | 20.93% | 24.06% | inactive | inactive
6 | COc1cccc2c1C(=O)c1c(O)c3c(c(O)c1C2=O)C[C@@](O)(C(=O)CO)C[C@@H]3O[C@H]1C[C@H](N)[C@H](O)[C@H](C)O1 [DOXORUBICIN] | – | 1 nM | – | – | 150 nM | – | – | – | – | – | – | – | – | – | – | – | – | –
7 | O=c1cc2oc3c4c(ccc3nc-2c2cccnc12)CCCC4 | 1800 nM | 1900 nM | 1400 nM | 1500 nM | 1000 nM | 1100 nM | 2100 nM | 1900 nM | 1000 nM | 2500 nM | 2000 nM | 2100 nM | 1900 nM | – | – | – | – | –
8 | O=c1cc2oc3ccccc3nc-2c2cccnc12 | – | – | 10 nM | 20 nM | 100 nM | – | – | – | – | – | – | 200 nM | – | – | – | – | – | –
9 | O=c1cc2oc3ccc4c(c3nc-2c2cccnc12)CCCC4 | 1900 nM | 1800 nM | 1000 nM | 1300 nM | 1700 nM | 1900 nM | 4000 nM | 1300 nM | 2000 nM | 1600 nM | 1300 nM | 1000 nM | 3200 nM | – | – | – | – | –
10 | Cc1cc2nc3c4cccnc4c(=O)cc-3oc2cc1C | 800 nM | 400 nM | 40 nM | 100 nM | 90 nM | 800 nM | 400 nM | 150 nM | 40 nM | 800 nM | 900 nM | 30 nM | 300 nM | – | – | – | – | –
11 | Cc1c2oc3c(C)ccc(C(=O)N[C@@H]4C(=O)N[C@H](C(C)C)C(=O)N5CCC[C@H]5C(=O)N(C)CC(=O)N(C)[C@@H](C(C)C)C(=O)O[C@@H]4C)c3nc-2c(C(=O)N[C@@H]2C(=O)N[C@H](C(C)C)C(=O)N3CCC[C@H]3C(=O)N(C)CC(=O)N(C)[C@@H](C(C)C)C(=O)O[C@@H]2C)c(N)c1=O [DACTINOMYCIN] (I: T[dV]P[Sar][NMeV] / II: T[dV]P[Sar][NMeV]; ester I:1-I:C, II:1-II:C; linker I:N-II:N via Actinocin(1to9)) | – | – | – | – | 1 nM | – | – | – | – | – | – | – | – | – | – | – | – | –
12 | Cc1cc(C)c2oc3cc(=O)c4ncccc4c-3nc2c1 | 1100 nM | 900 nM | 300 nM | 100 nM | 1200 nM | 600 nM | 900 nM | 150 nM | 500 nM | 1700 nM | 1500 nM | 1600 nM | 1200 nM | – | – | – | – | –
13 | Cc1ccc2oc3cc(=O)c4ncccc4c-3nc2c1C | 1300 nM | 1800 nM | 1200 nM | 300 nM | 700 nM | 900 nM | 2000 nM | 200 nM | 1100 nM | 2600 nM | 1300 nM | 1200 nM | 2700 nM | – | – | – | – | –
14 | Cc1ccc(C)c2oc3cc(=O)c4ncccc4c-3nc12 | 400 nM | 500 nM | 400 nM | 80 nM | 500 nM | 10 nM | 1100 nM | 700 nM | 8000 nM | 900 nM | 700 nM | 5500 nM | 1600 nM | – | – | – | – | –
